Test system: Brain tumor (9 L gliosarcoma)
Test: MRI (7T, 2D-RARE) T1/T2 measurement of excised subcutaneous tumor after ALA administration
Details: for Average T1 value / Average T2 value: ROI in excised tumor portion, ALA 100 mg/kg, 3 hours after administration, 7T-MRI, mean ± standard deviation

Question: Which “Average T1 value” (First average) does the source give for `NCC(=O)CCC(=O)O` [ALA, 5-aminolevulinic acid] here?
Answer: 2004 ± 73 ms

Question: What about the “Average T2 value” (First average) of the same molecule?
Answer: 146 ± 22 ms

Question: And the “Average T1 value” (Second average)?
Answer: 2188 ± 210 ms

Question: What about the “Average T2 value” (Second average) of the same molecule?
Answer: 123 ± 5.7 ms

Question: What about the “signal ratio (ALA administration group/control group) of T2 value” (first measurement) of the same molecule?
Answer: approximately 1.4 times

Question: What about the “signal ratio (ALA administration group/control group) of T2 value” (second measurement) of the same molecule?
Answer: approximately 1.3 times
